Results from patent US10533021B2, “Boron-containing small molecules” (Anacor Pharmaceuticals, Inc., priority 2007, dated 2020).
Structures can show the parent of a compound that is named as a salt.

What was measured:
E. coli = assay: Resistance of E. coli mutants selected against the compound (MIC); format: cell-based; details: E. coli mutants showing resistance to compound vs wildtype
Excerpt: In an exemplary assay, activity of a representative compound against the editing domain was confirmed. To identify the target of the novel boron-containing antibacterial compound (A1), mutants in E. coli showing resistance to compound (A1) were isolated. […] The leuS gene from the mutants was cloned onto a plasmid and their resistance was confirmed by MIC. The editing domain from these mutants were sequenced and the mutations were all located in the editing domain of this enzyme.
All MIC testing of bacteria followed the Clinical and Laboratory Standards Institute (CLSI) guidelines for antimicrobial testing of aerobic bacteria (Methods for Dilution Antimicrobial Susceptibility Tests for Bacteria That Grow Aerobically; Approved Standard—Seventh Edition) (M07-A7) and anaerobic bacteria (Methods for Antimicrobial Susceptibility Testing of Anaerobic Bacteria; Approved Standard—Seventh Edition) (M11-A7).
Compare the minimal inhibitory concentration (MIC) of a tolC Escherichia coli strain bearing a pUC derived plasmid with and without an leuS gene insert.
If the MIC of the strain bearing the extra copies of leuS is greater than 2-fold more than the control strain then pour LB agar plates with four times the concentration of the MIC of the compound.
Plate 1×10^10 E. coli on ten plates containing 4×MIC of the compound. […]

Nail plate penetration = format: in vitro ADME
[1] = Solubility (water and formulation solvents); format: physicochemical; details: water

| SMILES | penetration of the nail plate (Nail plate penetration) | solubility [1] | other results |
| --- | --- | --- | --- |
| NCC1OB(O)c2ccccc21 (centres unmarked) [A1, 3-Aminomethyl-3H-benzo[c][1,2]oxaborol-1-ol) hydrochloride] | – | – | fold increase in resistance of E. coli mutants over wildtype (E. coli): 32-256 fold |
| Fc1ccc2c(c1)COB2c1ccccc1 [Compound 3] | penetrates the nail plate poorly | – | – |
| Cc1cc(C2CCCCC2)n(O)c(=O)c1 [ciclopirox, reference compound] | penetrates the nail plate poorly | – | – |
| OB1OCc2cc(F)ccc21 [compound 1] | – | > 100 µg/mL | – |
| OB1OCc2cc(Cl)ccc21 [compound 2] | – | > 100 µg/mL | – |
